# Reference: patent USRE48164E1, “Compounds and compositions for delivering active agents” (EMISPHERE TECHNOLOGIES INC., priority 2007, dated 2020)
# Experiments:
# [1] = test system: male, Sprague-Dawley rats; assay: Oral Delivery of Insulin in Rats: whole blood glucose after oral gavage of insulin with delivery agent compound; format: in vivo, rat; conditions: sodium salt of delivery agent
# Experimental: Human recombinant insulin (ICN Biomedicals, Aurora, Ohio) was dissolved in deionized water (ph˜6.5) to obtain stock insulin solutions having a concentration of 15 mg/ml. Sodium salts of the delivery agent compounds shown below in table 1 dissolved in deionized water to obtain a 200 mg/ml delivery agent solution. The free acid form of delivery agent as converted to the sodium salt by adding one equivalent of sodium hydroxide. Solutions were vortexted, sonicated, and heated. If necessary, additional sodium hydroxide was added in μl quantities to achieve uniform solubility in the delivery agent solutions. Solutions were adjusted to a pit of 3.5-8.5 by the addition of either hydrochloric acid or sodium hydroxide, as appropriate. The insulin stock solution was then added to the delivery agent solutions to obtain an administration solution ultimately having an insulin concentration of 0.5 mg/ml. After solubilization and drug addition, administration solutions were brought to a final volume by the addition of deionized water.
# Insulin was administered to male, Sprague-Dawley rats either alone or in combination with delivery agent by oral gavage (PO). Rats, weighing 0.22 to 0.27 kg, were fasted for 18-24 hours prior to dosing. A Rusch 8 French catheter was cut to 11 cm in length and adapted to fit a 1 ml syringe. The syringe was filled with dosing solution and the catheter was inserted into the at mouth and fed down the esophagus (10.0 cm). The dosing solution was delivered by pressing the syringe plunger while holding the rat in an upright position. The doses of delivery agent and insulin were 200 mg/kg and […], respectively unless noted otherwise in Table 1. The dose volume was […].
# Immediate to each blood sampling point, rats were exposed briefly (˜10 seconds) to carbon dioxide until prostrate. A 77-nun capillary tube was inserted into the retroorbital sinus. Typically, blood samples were collected prior to dosing (time=0) and at 15, 30, 45, and 60 minutes after dosing.
# To determine the pharmacodynamic response, a hand-held glucometer (OneTouch Ultra, LifeScan—Johnson & Johnson, New Brunswick, N.J.) was used to measure whole blood glucose after administration of insulin or insulin and delivery agent. After discarding the first drop of blood, a small sample (˜5-10 μls) was touched to the glucometer test strip (OneTouch Ultra, LifeScan) and a blood glucose reading was generated by the meter. Samples at the times indicated below in Table 1 after dosing.
# [2] = insulin 0.5 mg/kg, delivery agent 200 mg/kg, time period 30 minutes
# [3] = insulin 0.5 mg/kg, delivery agent 100 mg/kg, time period 30 minutes
# [4] = insulin 0.5 mg/kg, delivery agent 100 mg/kg, time period 45 minutes
smiles,measurement,setting,value
"Cc1cc(F)ccc1OCCCC(=O)O [Compound 11, 4-(4-Fluoro-2-methyl-phenoxy)-butyric aid]",Average Glucose Reduction (5 rats/experiment),[1]; [2],−63.7%
same,Average Glucose Reduction (5 rats/experiment),"[1]; insulin 0.5 mg/kg, delivery agent 200 mg/kg, time period 45 minutes",−78.0%
"O=C(O)CCCOc1ccccc1Cl [Compound 8, 4-(2-Chlorophenoxy)butanoic acid]",melting point,,85 to 87 °C
"Cc1ccc(C)c(OCCCC(=O)O)c1 [Compound 1, 4-(2,5-Dimethylphenoxy)butyric acid]",Average Glucose Reduction (5 rats/experiment),"[1]; insulin 0.05 mg/kg, delivery agent 200 mg/kg, time period 15 minutes",−16.1%
same,Average Glucose Reduction (5 rats/experiment),"[1]; insulin 0.10 mg/kg, delivery agent 200 mg/kg, time period 30 minutes",−13.0%
same,Average Glucose Reduction (5 rats/experiment),"[1]; insulin 0.3 mg/kg, delivery agent 200 mg/kg, time period 45 minutes",−34.0%
same,Average Glucose Reduction (5 rats/experiment),[1]; [3],−31.4%
same,Average Glucose Reduction (5 rats/experiment),[1]; [4],−60.6%
"CC(=O)c1cccc(OCCCCCC(=O)O)c1 [Compound 2, 6-(3-Acetylphenoxy)hexanoic acid]",Average Glucose Reduction (5 rats/experiment),"[1]; insulin 0.5 mg/kg, delivery agent 25 mg/kg, time period 45 minutes",−25.8%
same,Average Glucose Reduction (5 rats/experiment),"[1]; insulin 0.5 mg/kg, delivery agent 50 mg/kg, time period 45 minutes",−30.2%
same,Average Glucose Reduction (5 rats/experiment),[1]; [4],−50.8%
"Cc1ccc(F)c(OCCCC(=O)O)c1 [Compound 12, 4-(2-Fluoro-5-methyl-phenoxy)-butyric acid]",Average Glucose Reduction (5 rats/experiment),"[1]; insulin 0.25 mg/kg, delivery agent 100 mg/kg, time period 30 minutes",−41.0%
same,Average Glucose Reduction (5 rats/experiment),"[1]; insulin 0.5 mg/kg, delivery agent 25 mg/kg, time period 60 minutes",−13.1%
same,Average Glucose Reduction (5 rats/experiment),"[1]; insulin 0.5 mg/kg, delivery agent 50 mg/kg, time period 60 minutes",−25.7%
same,Average Glucose Reduction (5 rats/experiment),[1]; [3],−47.9%
"O=C(O)CCCOc1cccc(F)c1 [Compound 7, 4-(3-Fluorophenoxy)butyric acid]",melting point,,53 to 54 °C
Cc1cccc(OCCCC(=O)O)c1 [Compound 6],Average Glucose Reduction (5 rats/experiment),"[1]; insulin 0.25 mg/kg, delivery agent 100 mg/kg, time period 45 minutes",−30.9%
same,Average Glucose Reduction (5 rats/experiment),[1]; [4],−39.3%
same,Average Glucose Reduction (5 rats/experiment),"[1]; insulin 0.5 mg/kg, delivery agent 200 mg/kg, time period 60 minutes",−14.4%
same,melting point,,53 to 54 °C
"CC(C)(Oc1ccc(Cl)cc1)C(=O)NCCCCCC(=O)O [Compound 10, 6-[2-(4-Chlorophenoxy)-2-methylpropionyl]-aminohexanoic acid]",Average Glucose Reduction (5 rats/experiment),[1]; [2],2.5%
